Assay results published in patent US11672815B2, “Composition for inhibiting immune cell proliferation comprising sialyllactose or derivative thereof and method thereof” (CUPIONE CO., LTD., priority 2017, dated 2023).

How the values were obtained:
[1] = test system: Mmp3, Mmp13, and COX2; assay: Mmp3, Mmp13 and COX2 expression in IL-1β-treated mouse FLS; format: cell-based
Protocol: Anti-chemokine and anti-inflammatory effects of 3′-sialyllactose were examined. First, purity of mouse FLS was examined by FACS analysis, and then no effects of 3′-sialyllactose on FLS proliferation and cytotoxicity were examined by WST-1 assay (see FIGS. 14A-A to 14A-C). […] Therefore, in a subsequent in vitro experiment, 3′-sialyllactose was used at a concentration of 0 μM to 250 μM. In order to examine effects of 3′-sialyllactose on IL-1β-, IL-6-, IL-17-, and TNF-α-induced chemokines (e.g., CCL2, CCL5, CCL7, CXCL1, CXCL2, and CXCL5), pro-inflammatory cytokines (IL-1, IL-6, and TNF-α), and COX2 expression, IL-1β-, IL-6-, IL-17-, and TNF-α-stimulated human RA-FLS and mouse FLS were treated with 3′-sialyllactose (100 μM or 250 μM) for 24 hrs.
FIGS. 14A-A and 14A-B show FACS results of analyzing marker expression on the FLS surfaces in a mouse according to passages (FIG. 14A-A: CD90.2; FIG. 14A-B: CD14), and a graph of cytotoxicity confirmed by WST-1 assay (FIG. 14A-C), and FIG. 14B is a graph showing Mmp3, Mmp13, and COX2 expression levels according to lactose, sialic acid, and 3′-sialyllactose in IL-1β-treated mouse FLS.

[2] = test system: type II collagen (Col2a1); assay: Col2a1 expression in chondrocytes (qRT-PCR, Western blotting); format: cell-based, mouse
Protocol: In order to examine effects of 3′- or 6′-sialyllactose on cartilage formation and regeneration, the chondrocytes obtained in Example 1 were incubated for 36 hrs and then treated with 3′- or 6′-sialyllactose at a concentration of 0 μM, 10 μM, 50 μM, 100 μM, or 250 μM, followed by further incubation for 36 hrs.
Next, in order to perform qRT-PCR, RNA was extracted from the chondrocytes using a TRI reagent (Molecular Research Center Inc.), and cDNA obtained by reverse transcription of RNA was amplified by PCR using primers of SEQ ID NOS: 1 and 2 under condition of annealing temperature of 55° C. to examine expression of type II collagen (Col2a1, 173 bp) which is essential for cartilage formation. As a control group, Gapdh (450 bp, annealing temperature of 58° C.) was examined by using primers of SEQ ID NOS: 3 and 4.
Further, a whole cell lysate was extracted from the chondrocytes using a lysis buffer (150 mM NaCl, 1% NP-40, 50 mM Tris, 5 mM NaF) containing protease and phosphatase inhibitor cocktails (Roche), and Col2a1 expression in the cells was examined. Western blotting was performed using anti-Col2a1 antibody (Millipore) and anti-Erk antibody (Cell signaling), and thickness and concentration of Western blot bands were measured by a computer program and relative values thereof were determined by densitometry (FIGS. 4A and 4B).
IL-1β is a representative inflammatory cytokine inhibiting Col2a1 expression in chondrocytes. Chondrocytes were incubated for 36 hrs, and then treated with 5 ng/ml of IL-1β (GeneScript, USA) for 24 hrs to confirm that Col2a1 expression was decreased by IL-1β.
In order to examine whether the decreased Col2a1 expression is increased again in chondrocytes by 3′- or 6′-sialyllactose, qRT-PCR and Western blotting were performed in the same manner as in Example 2-1.

[3] = test system: Mmp3; assay: Mmp3 expression in IL-1β-treated chondrocytes (qRT-PCR, Western blotting); format: cell-based, mouse; conditions: 5 ng/ml of IL-1β, 0 to 250 μM, 24 hrs; concentration-dependent
Protocol: (§1) IL-1β is a representative inflammatory cytokine that decreases Col2a1 essential for cartilage formation in chondrocytes and also promotes articular inflammation and cartilage tissue destruction. Chondrocytes were treated with 5 ng/ml of IL-1β by time, and then qRT-PCR was performed using conditions and primers of the following Table 1 according to the method of Example 2-1 to examine inhibition of Mmp3 and Mmp13 expression.
(§2) Secretory proteins such as Mmp3 and Mmp13 were allowed to react at 0° C. for 20 min after reacting 900 μl of serum-free medium (conditioned medium) with 100 μl of trichloroacetic acid (TCA). Next, a supernatant was discarded by centrifugation at 12,000 rpm and 4° C. for 10 min, and then reacted with 500 μl of 100% cold acetone at […] for 1 hr. The sample reacting with 100% acetone was centrifuged to discard a supernatant, and proteins were finally precipitated and detected. Western blotting was performed using anti-Mmp3 antibody (Abcam) and anti-Mmp13 antibody (Abcam), and thickness and concentration of Western blot bands were measured by a computer program and relative values thereof were determined by densitometry.

[4] = test system: chondrocytes; assay: Cytotoxicity of sialyllactose on chondrocytes (EZ-Cytox cell viability assay); format: cell-based, mouse; conditions: 0 μM, 10 μM, 50 μM, 100 μM, or 250 μM, 24 hrs
Protocol: Chondrocytes were obtained from cartilage tissues derived from femoral heads, femoral condyles, and tibial plateaus of normal mouse at 5 days after birth. The obtained chondrocytes were cultured in DMEM medium (Gibco, USA) containing 10% (v/v) fetal bovine serum (Gibco, USA), 50 μg/ml of streptomycin (Sigma-Aldrich, USA) and 50 unit/ml of penicillin (Sigma-Aldrich, USA).
In order to confirm that 3′- or 6′-sialyllactose has no cytotoxicity on chondrocytes, chondrocytes were cultured in a 96-well culture plate at a density of 9×10^3 cells/well, and then treated with 3′- or 6′-sialyllactose (Genechem Inc., Daejeon, Korea) at a concentration of 0 μM, 10 μM, 50 μM, 100 μM, or 250 μM, followed by incubation in a 5% CO2 incubator at 37° C. for 24 hrs. Cytotoxicity of 3′- or 6′-sialyllactose on chondrocytes was confirmed by measuring absorbance at 450 nm using an EZ-Cytox Cell viability assay kit (DoGen, Korea).

[5] = test system: Sox-9; assay: Sox-9 reporter gene luciferase activity in chondrocytes; format: cell-based, mouse; conditions: co-treated with 5 ng/ml IL-1β and 0 to 250 μM for 24 hrs
Protocol: A Sox-9 reporter gene was prepared by inserting 48-bp Sox9 binding site in the first intron of human Col2a1 gene into the upstream of SV40 promoter in pGL3 vector (Zhou G et al., J Biol Chem 1998, 12, 14989-97).
1 μg of the Sox-9 reporter gene was transfected into chondrocytes using lipofectamine 2000 (Invitrogen) for 3 hrs. The transfected cells were co-treated with 5 ng/ml interleukin 1 beta (IL-1β) and 0 μM, 10 μM, 50 μM, 100 μM, or 250 μM of 3′- or 6′-sialyllactose for 24 hrs, and then chondrocytes were recovered to examine Sox-9 activity by luciferase activity.

[6] = test system: Mmp13; assay: Mmp13 expression in IL-1β-treated chondrocytes (qRT-PCR, Western blotting); format: cell-based, mouse; conditions: 5 ng/ml of IL-1β, 0 to 250 μM, 24 hrs; concentration-dependent
Protocol: as §1, §2

Structure (SMILES)	Mmp3, Mmp13, and COX2 expression levels, control groups for 3′-sialyllactose [1]	Col2a1 expression in chondrocytes ([2]; 0 to 250 μM, 36 hrs)	Col2a1 expression suppressed by IL-1β in chondrocytes ([2]; 5 ng/ml of IL-1β)	Mmp3 expression increased by IL-1β in chondrocytes [3]	cytotoxicity on chondrocytes [4]	Sox-9 activity decreased by IL-1β [5]	Mmp13 expression increased by IL-1β in chondrocytes [6]
OC[C@H]1O[C@@H](O[C@H]2[C@H](O)[C@@H](O)C(O)O[C@@H]2CO)[C@H](O)[C@@H](O)[C@H]1O (stereo partly shown) [lactose]	no significant difference						
CC(=O)N[C@H]1C([C@H](O)[C@H](O)CO)O[C@@](OCC2O[C@@H](O[C@@H]3C(CO)OC(O)C(O)[C@H]3O)C(O)[C@@H](O)[C@H]2O)(C(=O)[O-])C[C@H]1O.[Na+] (stereo partly shown) [6′-sialyllactose]		increased	gradually increased	decreased	did not show cytotoxicity	restored	decreased
